In the NIST ThermoML archive (doi:10.1021/acs.jced.8b00399):

Details: 99.6 kPa, Liquid; for viscosity: Capillary tube (Ostwald / Ubbelohde) method; for mass density: Vibrating tube method

CNC(C)=O [N-methylacetamide]
Details | mass density [kg/m3] | viscosity [mPa·s]
308.15 K | 946.01 | 3.57
313.15 K | 941.81 | 3.152
318.15 K | 937.59 | 2.8
323.15 K | 933.36 | 2.496
328.15 K | 929.17 | 2.245
